According to patent publication US11591297B2, “Compound having PD-L1 expression-suppressing action” (TOHOKU UNIVERSITY, priority 2019, dated 2023):

Test system: human IL-2 promoter
Experiment: IL-2luc activity (luciferase under control of IL-2 promoter) of Jurkat cells co-cultured with IFN-γ-treated A549 cells
Format: cell-based
Conditions: control (DMSO) IFN-γ(−) defined as 100%, control IFN-γ(+) 54.5
Experimental: The pIL-2luc obtained by the insertion of a human IL-2 promoter sequence (−945 to 53) into the multiple cloning site of pGL-3 vector basic (Promega) was preliminarily transfected into Jurkat cells. PMA and PHA-L were added into the Jurkat cells and the cells were pre-cultured. Simultaneously, IFN-γ was added into A549 cells and the cells were pre-cultured. The supernatants of each culture liquid at the time of the pre-culture of each cell were removed, the culture liquids were co-cultured in new medium. The luciferase activity of the co-cultured Jurkat cells was measured. Each test compound was added into the A549 cell culture liquid during the pre-culture.
A549 cells were suspended in DMEM medium at a concentration of 3×10^5 cells/mL to prepare a suspension, and the suspension was dispensed into a T25 flask in an amount of 5 mL and cultured
Separately, 5 μg of pIL-2luc DNA and 15 μL of TransIT-Jurkat reagent (Takara Bio: Cat #V2124) were added into 500 μL of serum-free medium, and the medium was allowed to stand at room temperature for 15 minutes. […]
LAS in Luciferase Assay System was dissolved in LAB to prepare a luciferase reagent. 10 μL of the sample was mixed with 50 μL of the luciferase reagent, and the chemiluminescence (Relative Luminescence Intensity: RLU) of the sample was measured using GloMax20/20 (Promega). […]

`O=C(Nc1ccc(Oc2ccc(S(F)(F)(F)(F)F)cc2)cc1)C1CCCN(C(=O)c2ccc([N+](=O)[O-])cc2)C1` (centres unmarked) [Example 5, 1-(4-Nitrobenzoyl)-N-(4-(4-(pentafluorosulfanyl)phenoxy)phenyl)piperidine-3-carboxamide] showed an activity at 0.5 µM (0.5 μM) of 63.5% and an activity at 1 µM (1 μM) of 85.9%.
